Experimental findings from PMC12305494, “Discovery of PXR Antagonist MI891 and PXR Degrader MI1013 and Their Roles in Hepatic Gene Regulation” (Journal of Medicinal Chemistry, 2025) are described below.

Data set [1] has as its target T1, human CAR LBD (Homo sapiens, UniProt Q14994).
T1 construct: constructs encoding helices 3–12 and helix 1 of human CAR LBD; expressed in transfected cells; host or cells: HepG2
T1 sequence (Q14994 103-150 isoform Q14994-2 limits assumed): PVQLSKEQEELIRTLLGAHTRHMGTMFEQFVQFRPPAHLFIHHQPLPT
T1 sequence (Q14994 151-348 isoform Q14994-2 limits assumed): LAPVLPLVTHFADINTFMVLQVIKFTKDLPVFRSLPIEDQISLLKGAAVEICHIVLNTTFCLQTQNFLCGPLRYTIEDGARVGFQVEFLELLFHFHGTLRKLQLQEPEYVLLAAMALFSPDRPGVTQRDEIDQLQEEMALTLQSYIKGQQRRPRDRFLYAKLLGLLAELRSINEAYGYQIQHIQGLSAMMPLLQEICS
The data set can be described thus: CAR LBD assembly assay (CAR AA). The conditions noted are these: na = no activity; tox = cytotoxicity in HepG2 cells. The data set is classed as cell-based. The text has this: The CAR LBD assembly assay used constructs encoding helices 3–12 and helix 1 of human CAR LBD as described before. GL4.31[luc2P/GAL4UAS/Hygro] (pGAL4 UAS-luc) luciferase reporter vector and pRL-TK Renilla expression vector (Promega) were used in the assay in HepG2 cells transfected using Lipofectamine 3000.

Data set [2] addresses T2, human CAR LBD (Homo sapiens, UniProt Q14994).
T2 sequence (Q14994 103-352): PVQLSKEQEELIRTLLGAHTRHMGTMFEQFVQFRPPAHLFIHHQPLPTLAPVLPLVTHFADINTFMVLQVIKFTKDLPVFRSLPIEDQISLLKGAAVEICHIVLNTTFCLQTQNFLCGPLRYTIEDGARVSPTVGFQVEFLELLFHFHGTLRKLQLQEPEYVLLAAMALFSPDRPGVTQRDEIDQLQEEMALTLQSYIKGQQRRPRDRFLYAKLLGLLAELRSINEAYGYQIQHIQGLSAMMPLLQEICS
Briefly: LanthaScreen TR-FRET CAR Coactivator assay. Particulars: nb = no binding. The data set is classed as biochemical. Here is the method: We utilized the LanthaScreen TR-FRET CAR Coactivator Binding Assay Kit, goat (Thermo Fisher Scientific, Cat. No. PV4836), which includes GST-tagged human CAR LBD and a fluorescein-labeled PGC1α coactivator peptide. The assay was performed with slight modifications to the manufacturer’s protocol, as previously reported. […] The interaction with the PXR ligand-binding domain (LBD) was assessed using the LanthaScreen TR-FRET PXR Competitive Binding Assay (Thermo Fisher Scientific, PV4839), as previously described. This assay quantifies the ability of test compounds to displace a fluorescent PXR ligand from the receptor. Fluorescence readings were taken on a Synergy 2 Multi-Mode Microplate Reader (BioTek, Winooski, VT). The half-maximal inhibitory concentration (IC50) for PXR LBD was calculated from at least eight data points using GraphPad Prism software.
(In general: TR-FRET usually uses a lanthanide donor and a delayed reading to cut background.)

The target in data set [3] is T3, PXR (Homo sapiens, UniProt O75469).
T3 sequence (O75469 1-434): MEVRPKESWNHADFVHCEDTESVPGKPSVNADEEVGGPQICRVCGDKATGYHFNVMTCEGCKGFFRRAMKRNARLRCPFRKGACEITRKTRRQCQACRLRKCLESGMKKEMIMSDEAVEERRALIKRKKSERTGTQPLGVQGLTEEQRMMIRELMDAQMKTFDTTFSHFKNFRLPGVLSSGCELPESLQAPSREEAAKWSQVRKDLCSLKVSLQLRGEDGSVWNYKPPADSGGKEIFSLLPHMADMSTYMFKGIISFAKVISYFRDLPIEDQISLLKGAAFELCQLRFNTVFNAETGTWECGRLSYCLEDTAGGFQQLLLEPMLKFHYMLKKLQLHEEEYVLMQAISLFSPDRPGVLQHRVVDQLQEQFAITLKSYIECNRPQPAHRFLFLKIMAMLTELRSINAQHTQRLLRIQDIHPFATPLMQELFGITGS
Briefly: cell-based. Particulars: PXR antagonism: PXR inhibition (IC50, μM), antagonist mode with 10 μM rifampicin; mean ± SD, n = 3.
Description: The PXR activity was assessed as the PXR-dependent transcriptional activation using the construct. […] The control vector pRL-TK (Promega) constitutively expresses Renilla luciferase. […] Transient transfection experiments followed published protocols used in our laboratory and described before. , Luciferase reporter assays were conducted to evaluate interactions with PXR or CAR and their variants in HepG2, or COS-1. Cells were seeded at a density of 40,000 cells/cm^2 in 48-well plates (ThermoFisher Scientific) and maintained at 37 °C in a humidified atmosphere with 5% CO2. […] Following seeding, HepG2 cells were transfected with 150 ng/well of a luciferase reporter construct and 100 ng/well of a nuclear receptor expression vector using Lipofectamine 3000 (ThermoFisher Scientific) and with pRL-TK (30 ng/well) serving as the normalization control. After 24 h, cells were treated with test compounds for 24 h before cell lysis and subsequent firefly and Renilla luciferase activity analysis using the Dual-Glo Luciferase Assay System (Promega). […] The activities of test compounds were normalized to the respective controls to determine % activation or inhibition.

The target of data set [4] is T3, PXR. The data set can be described thus: PXR-responsive CYP3A4 promoter luciferase reporter assay in HepG2, inverse agonist mode (basal activity). The conditions noted are these: tested at 10 μM, DMSO (0.1%) = 100% basal activity. The data set is classed as cell-based. More on the design: expressed in transfected cells; host or cells: HepG2. On the procedure:
Rhesus monkey, mouse, and rat PXR expression vectors (100 ng/well each) were also obtained from GenScript. […] Carlberg (University of Kuopio, Kuopio, Finland).
The cells were cultured in DMEM medium (Merck) supplemented with 10% fetal bovine serum.

In data set [5] the target is T4, PXR (Homo sapiens, UniProt O75469+Q96SW2).
T4 construct: differentiated hepatic HepaRG cells, which naturally express high PXR activity and expression; endogenous in cells; host or cells: differentiated HepaRG
The data set can be described thus: Western blot of PXR in differentiated HepaRG cells. The format is cell-based. Particulars: 24 h. Here is the method:
The harvested HepaRG cells were lysed in RIPA lysis buffer (Cat. no 89900, Thermo Scientific) containing Halt protease inhibitor cocktail inhibitors (Thermo Scientific). Protein concentration was measured using the Pierce BCA Protein Assay Kit (Cat. no. 23225, Thermo Scientific), samples were diluted in 4 × Laemmli sample buffer (Cat. no. 1610747, BioRad) supplemented with mercaptoethanol and heated at 95 °C for 5 min. Equal amounts of protein were loaded in 4–20% Mini-PROTEAN TGX Stain-Free Protein Gels (12 well. cat. no. 4561095 or 15 well, cat. no. 4568096, Bio-Rad), electrophorised, and transferred onto Trans-Blot Turbo Midi-size PVDF Membrane (cat. no. 1704273, Bio-Rad), and blocked with EveryBlot Blocking buffer for 10 min (cat. no. 12010020, Bio-Rad). The membranes were incubated overnight at 4 °C with the following antibodies: PXR polyclonal antibody (1:500, PA5–41170, Invitrogen), RXRA polyclonal antibody (1:1000, 21218–1-AP, Proteintech), and GSPT1 polyclonal antibody (1:1000, 10763-a-AP, Proteintech), washed with TBS-T for 3 times, and followed by incubation with goat antirabbit IgG (H + L) Secondary antibody, HRP (1:200, 000, 1 h, cat. no. 31460, Invitrogen). Chemiluminescence signals were detected using SuperSignal West Femto Maximum Sensitivity Substrate (cat. no. 34096, Thermo Scientific) and visualized by the ChemiDoc MP Imaging system (Universal Hood III, #731BR02821, Bio-Rad), and the bands were quantified using β-actin (1:2000, recombinant rabbit conjugated monoclonal antibody (JF53-10), cat. no. MA5-32540, Invitrogen) as loading control with ImageJ (version 1.54g) software.
For orientation: In western blotting, separated proteins are transferred to a membrane and probed.

A short description of data set [6]: Plasma stability, mouse plasma. The data set is classed as in vitro ADME. Particulars: up to 120 min, read-out: Plasma stability, t1/2 (min), mouse. Here is the method:
The protocols and reagents for the plasma protein binding assay and metabolic stability testing in human and mouse liver microsomes are detailed in our previous report. Briefly, metabolic stability of compounds was assessed at a single concentration (5 μM) at t = 0, 10, 30, and at t = 45 min. The stability of compounds was tested in human and mouse microsomes (ThermoFisher Scientific). Compounds were tested in triplicate with or without NADPH wells as a negative control for cytochrome P450 metabolism. In addition to hepatic metabolism, compounds were also subjected to degradation/modification by enzymes in human (VWR International) and mouse (Biomedica, CZ) plasma for t = 0, 30, 60, and at t = 120 min. Each assay included a substrate with known activity as a positive control. Time points were analyzed by LC/MS/MS. The peak area for the parent compound is compared to the time zero sample in order to assess the amount of remaining compound.

T4 sequence (Q96SW2 whole entry, one chain of several): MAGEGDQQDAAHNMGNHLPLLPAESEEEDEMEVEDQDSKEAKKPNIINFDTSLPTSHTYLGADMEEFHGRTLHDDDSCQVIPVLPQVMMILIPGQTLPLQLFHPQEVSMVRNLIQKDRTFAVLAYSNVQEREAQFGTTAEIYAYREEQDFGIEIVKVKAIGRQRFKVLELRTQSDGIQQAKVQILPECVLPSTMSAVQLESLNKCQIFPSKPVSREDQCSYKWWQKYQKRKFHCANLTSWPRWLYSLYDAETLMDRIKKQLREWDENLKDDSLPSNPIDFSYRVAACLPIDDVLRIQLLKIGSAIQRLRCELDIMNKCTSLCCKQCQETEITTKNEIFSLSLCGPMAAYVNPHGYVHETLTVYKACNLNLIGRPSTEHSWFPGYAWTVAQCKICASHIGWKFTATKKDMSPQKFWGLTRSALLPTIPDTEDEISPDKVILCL

Regarding `CC(c1ccc(Cl)c(C(N)=O)c1)n1cc(-c2c(-c3ccc(Cl)cc3)nc3ccccn23)nn1` (centres unmarked) [Compound 2, 2-Chloro-5-(1-(4-(2-(4-chlorophenyl)imidazo[1,2-a]pyridin-3-yl)-1H-1,2,3-triazol-1-yl)ethyl)benzamide], the EC50 (as a rule, the concentration that produces a half-maximal response) on human CAR LBD [1] is 5.3 ± 0.3 µM; at human CAR LBD [2], > 5 µM. Moreover, on PXR [3], half-maximal inhibition (IC50) required 25.4 ± 3.5 µM.

With `NC(=O)c1cc(Cn2cc(-c3c(-c4ccncc4)nc4ccccn34)nn2)ccc1Cl` [Compound 3, 2-Chloro-5-((4-(2-(pyridine-4-yl)imidazo[1,2-a]pyridine-3-yl)-1H-1,2,3-triazol-1-yl)methyl)benzamide], the “CAR TR-FRET (EC50, μM)” value on human CAR LBD [2] was “nb”. Moreover, the IC50 (as a rule, the concentration at which inhibition is half-maximal) against PXR [3] is > 100 µM.

`NC(=O)c1cc(Cn2cc(-c3c(-c4ccc(C5CC5)cc4)nc4ccccn34)nn2)ccc1Cl` [Compound 4, 2-Chloro-5-((4-(2-(4-cyclopropylphenyl)imidazo[1,2-a]pyridin-3-yl)-1H-1,2,3-triazol-1-yl)methyl)benzamide]: on human CAR LBD [1], the EC50 was > 20 µM. Moreover, on human CAR LBD [2], the “CAR TR-FRET (EC50, μM)” value is “nb”. On PXR [3], this compound had an IC50 of 5.76 ± 2.6 µM.

`CNC(=O)c1cc(Cc2nnc(-c3c(-c4ccc(Cl)cc4)nc4ccccn34)o2)ccc1Cl` [Compound 5, 2-Chloro-5-((5-(2-(4-chlorophenyl)imidazo[1,2-a]pyridin-3-yl)-1,3,4-oxadiazol-2-yl)methyl)-N-methylbenzamide]: the figures for the EC50 at human CAR LBD [1] and at human CAR LBD [2] were 1.02 ± 0.2 µM and 0.401 µM, respectively. Also, the IC50 against PXR [3] is > 100 µM.

For `CNC(=S)c1cc(Cc2nnc(-c3c(-c4ccc(Cl)cc4)nc4ccccn34)o2)ccc1Cl` [Compound 6, 2-Chloro-5-((5-(2-(4-chlorophenyl)imidazo[1,2-a]pyridin-3-yl)-1,3,4-oxadiazol-2-yl)methyl)-N-methylbenzothioamide], the EC50 was determined as 0.99 ± 0.15 µM at human CAR LBD [1] and 0.162 µM at human CAR LBD [2]. Besides, the IC50 against PXR [3] is > 100 µM.

As for `CN(C)C(=O)c1cc(Cc2nnc(-c3c(-c4ccc(Cl)cc4)nc4ccccn34)s2)ccc1Cl` [Compound 7, 2-Chloro-5-((5-(2-(4-chlorophenyl)imidazo[1,2-a]pyridin-3-yl)-1,3,4-thiadiazol-2-yl)methyl)-N,N-dimethylbenzamide], the EC50 at human CAR LBD [1] is 0.5 ± 0.01 µM. Half-maximal inhibition on PXR [3] (IC50) required 4.94 ± 0.9 µM.

Take `NC(=O)c1cc(Cn2cc(-c3c(-c4ccc(Cl)cc4)nc4cc(F)ccn34)nn2)ccc1Cl` [Compound 9, 2-Chloro-5-((4-(2-(4-chlorophenyl)-7-fluoroimidazo[1,2-a]pyridin-3-yl)-1H-1,2,3-triazol-1-yl)methyl)benzamide]: the “PXR inverse agonism: decrease of basal activity in %” value is given as “(-72.03±0.3) %” on PXR [4] and “–72.03 ± 0.3%” on PXR [4] (listed as 9 (MI-883)).

As for `CNC(=O)c1cc(Cn2cc(-c3c(-c4ccc(Cl)cc4)nc4c(F)cc(F)cn34)nn2)ccc1Cl` [Compound 12, 2-Chloro-5-((4-(2-(4-chlorophenyl)-6,8-difluoroimidazo[1,2-a]pyridin-3-yl)-1H-1,2,3-triazol-1-yl)methyl)-N-methylbenzamide], the “CAR TR-FRET (EC50, μM)” value on human CAR LBD [2] is listed as “nb”. Besides, the IC50 at PXR [3] came out at 8.04 ± 2.3 µM.

For the compound `COc1ccc(OC)c(-n2nnc(S(=O)(=O)c3ccc(NC(=O)CCOCCOCCOCCOCCn4cc(CNc5cccc6c5C(=O)N(C5CCC(=O)NC5=O)C6=O)nn4)cc3)c2C)c1` (centres unmarked) [Compound 37, N-(4-((1-(2,5-dimethoxyphenyl)-5-methyl-1H-1,2,3-triazol-4-yl)sulfonyl)phenyl)-1-(4-(((2-(2,6-dioxopiperidin-3-yl)-1,3-dioxoisoindolin-4-yl)amino)methyl)-1H-1,2,3-triazol-1-yl)-3,6,9,12-tetraoxapentadecan-15-amide], the “PXR degradation (Western blot)” value at PXR [5] is given as “mild effect on PXR degradation”.

Take `CC(C)[N+](C)(CCOC(=O)C1c2ccccc2Oc2ccccc21)C(C)C` [Propantheline, reference compound]: the half-life in data set [6] came to 28 ± 1 min.

Turning to “N-(4-((1-(2,5-Dimethoxyphenyl)-5-methyl-1H-1,2,3-triazol-4-yl)sulfonyl)phenyl)-3-(2-(2-(4-(((2-(2,6-dioxopiperidin-3-yl)-1,3-dioxoisoindolin-4-yl)amino)methyl)-1H-1,2,3-triazol-1-yl)ethoxy)ethoxy)propenamide [Compound 35]”, the “PXR degradation (Western blot)” value at PXR [5] is recorded as “no effect on PXR degradation”.
